Measured values published in ChEMBL document CHEMBL1909046, “DrugMatrix in vitro pharmacology data”.

What was measured:
Adenosine receptor A1 = molecular target: T1, Adenosine receptor A1 (Homo sapiens, UniProt P30542); type: cell membranes, CHO, Membrane; conditions: cho;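 also: radioligand binding assay at the adenosine A1 receptor, with DPCPX serving as the labelled ligand; in other assays of this panel Not Active means under 50% inhibition at 10 µM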
T1 sequence (P30542 whole entry): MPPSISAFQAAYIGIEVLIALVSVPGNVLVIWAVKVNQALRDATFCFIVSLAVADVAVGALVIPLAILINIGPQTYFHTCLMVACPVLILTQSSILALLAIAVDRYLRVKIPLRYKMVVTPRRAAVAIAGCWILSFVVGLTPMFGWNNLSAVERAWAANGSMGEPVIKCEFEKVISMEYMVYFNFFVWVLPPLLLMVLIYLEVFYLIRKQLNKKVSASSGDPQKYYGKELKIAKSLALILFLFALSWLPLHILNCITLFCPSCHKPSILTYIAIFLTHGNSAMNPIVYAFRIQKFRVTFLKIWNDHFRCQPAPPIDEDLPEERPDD

[1] = molecular target: Mitogen-activated protein kinase 3 (Homo sapiens, UniProt P27361); experiment: DRUGMATRIX: Protein Serine/Threonine Kinase, ERK1 enzyme inhibition (substrate: Myelin Basic Protein); parameters: species or system Escherichia coli; conditions: Not Active = under 50% inhibition at 10 µM
Chain of Mitogen-activated protein kinase 3 (P27361 whole entry): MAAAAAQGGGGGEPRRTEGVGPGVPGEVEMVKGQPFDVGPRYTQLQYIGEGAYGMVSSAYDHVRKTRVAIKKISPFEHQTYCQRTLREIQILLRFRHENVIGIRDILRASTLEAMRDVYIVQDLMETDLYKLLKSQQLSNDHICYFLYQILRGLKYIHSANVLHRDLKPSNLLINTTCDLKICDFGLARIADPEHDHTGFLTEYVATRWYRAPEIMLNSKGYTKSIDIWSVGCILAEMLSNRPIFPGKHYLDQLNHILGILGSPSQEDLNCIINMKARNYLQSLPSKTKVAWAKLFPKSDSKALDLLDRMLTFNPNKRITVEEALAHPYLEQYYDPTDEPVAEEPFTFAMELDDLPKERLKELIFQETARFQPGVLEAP

[2] = molecular target: 5-hydroxytryptamine receptor 4 (Cavia porcellus, UniProt O70528); type: cell membranes, Dunkin-Hartley, Striatum, Membrane; also: in other assays of this panel Not Active means under 50% inhibition at 10 µM
Chain of 5-hydroxytryptamine receptor 4 (O70528 whole entry): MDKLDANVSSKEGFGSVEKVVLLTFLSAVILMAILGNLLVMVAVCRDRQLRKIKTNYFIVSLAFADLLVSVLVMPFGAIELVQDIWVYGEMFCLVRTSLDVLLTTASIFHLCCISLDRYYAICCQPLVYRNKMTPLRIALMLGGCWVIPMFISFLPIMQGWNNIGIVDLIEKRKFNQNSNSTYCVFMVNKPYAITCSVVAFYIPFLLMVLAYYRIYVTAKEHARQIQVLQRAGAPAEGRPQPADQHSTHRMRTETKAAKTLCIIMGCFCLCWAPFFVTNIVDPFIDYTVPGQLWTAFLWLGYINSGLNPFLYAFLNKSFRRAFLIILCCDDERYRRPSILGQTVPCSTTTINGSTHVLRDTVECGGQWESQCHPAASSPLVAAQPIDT

Melanocortin receptor 3 = Melanocortin receptor 3 (Homo sapiens, UniProt P41968); type: cell membranes, Membrane; conditions: hek293; also: in other assays of this panel Not Active means under 50% inhibition at 10 µM
Chain of Melanocortin receptor 3 (P41968 whole entry): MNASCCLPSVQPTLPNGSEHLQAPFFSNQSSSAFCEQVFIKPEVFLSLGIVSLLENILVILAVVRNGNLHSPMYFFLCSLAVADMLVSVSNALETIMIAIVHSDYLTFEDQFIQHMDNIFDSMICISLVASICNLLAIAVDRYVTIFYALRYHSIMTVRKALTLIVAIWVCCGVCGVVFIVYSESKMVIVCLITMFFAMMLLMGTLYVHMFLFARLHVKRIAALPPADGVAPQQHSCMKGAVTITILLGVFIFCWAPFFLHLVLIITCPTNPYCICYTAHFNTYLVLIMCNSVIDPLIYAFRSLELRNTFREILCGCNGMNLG

Cytochrome P450 2E1 = Cytochrome P450 2E1 (Homo sapiens, UniProt P05181); conditions: bti-tn-5b1-4; also: in other assays of this panel Not Active means under 50% inhibition at 10 µM
Chain of Cytochrome P450 2E1 (P05181 whole entry): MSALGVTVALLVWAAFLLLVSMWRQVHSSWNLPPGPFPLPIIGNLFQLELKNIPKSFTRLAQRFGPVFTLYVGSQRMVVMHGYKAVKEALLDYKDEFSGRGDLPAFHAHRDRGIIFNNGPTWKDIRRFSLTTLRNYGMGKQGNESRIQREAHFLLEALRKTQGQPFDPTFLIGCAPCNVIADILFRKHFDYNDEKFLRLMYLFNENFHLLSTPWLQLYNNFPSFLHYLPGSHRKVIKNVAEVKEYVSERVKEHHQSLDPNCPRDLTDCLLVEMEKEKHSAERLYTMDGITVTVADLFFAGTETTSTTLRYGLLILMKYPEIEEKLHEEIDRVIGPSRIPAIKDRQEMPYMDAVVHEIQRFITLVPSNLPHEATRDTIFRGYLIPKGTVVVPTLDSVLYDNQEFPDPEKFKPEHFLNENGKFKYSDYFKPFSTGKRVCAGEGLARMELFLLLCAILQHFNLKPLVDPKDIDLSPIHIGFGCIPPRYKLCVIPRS

[3] = molecular target: 5-hydroxytryptamine receptor 1B (Rattus norvegicus, UniProt P28564); type: cell membranes, Wistar, Cerebral cortex, Membrane; also: in other assays of this panel Not Active means under 50% inhibition at 10 µM
Chain of 5-hydroxytryptamine receptor 1B (P28564 whole entry): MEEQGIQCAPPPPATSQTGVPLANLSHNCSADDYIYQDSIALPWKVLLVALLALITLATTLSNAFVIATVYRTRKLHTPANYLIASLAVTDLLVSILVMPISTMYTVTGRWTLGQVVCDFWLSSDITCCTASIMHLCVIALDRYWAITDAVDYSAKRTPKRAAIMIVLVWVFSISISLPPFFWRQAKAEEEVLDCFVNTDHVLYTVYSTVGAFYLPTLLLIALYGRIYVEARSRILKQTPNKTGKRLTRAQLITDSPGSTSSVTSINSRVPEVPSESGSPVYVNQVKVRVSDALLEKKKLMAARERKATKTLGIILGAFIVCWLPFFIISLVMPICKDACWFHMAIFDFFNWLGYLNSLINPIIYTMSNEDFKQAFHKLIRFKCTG

[4] = molecular target: Mitogen-activated protein kinase 1 (Homo sapiens, UniProt P28482); experiment: DRUGMATRIX: Protein Serine/Threonine Kinase, ERK2 enzyme inhibition (substrate: Myelin Basic Protein); parameters: species or system Escherichia coli; conditions: Not Active = under 50% inhibition at 10 µM
Chain of Mitogen-activated protein kinase 1 (P28482 whole entry): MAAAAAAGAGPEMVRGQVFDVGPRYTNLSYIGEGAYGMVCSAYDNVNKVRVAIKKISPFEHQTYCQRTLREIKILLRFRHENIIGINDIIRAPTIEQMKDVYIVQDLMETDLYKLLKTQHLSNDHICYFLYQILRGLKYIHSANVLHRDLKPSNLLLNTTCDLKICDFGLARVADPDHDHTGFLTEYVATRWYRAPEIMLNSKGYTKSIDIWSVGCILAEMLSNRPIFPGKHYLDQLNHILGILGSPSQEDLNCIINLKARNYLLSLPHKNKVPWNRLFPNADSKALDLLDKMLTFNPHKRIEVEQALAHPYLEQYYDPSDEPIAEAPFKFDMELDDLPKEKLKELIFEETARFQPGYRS

Substance-P receptor = Substance-P receptor (Homo sapiens, UniProt P25103); type: cell membranes, CHO, Membrane; conditions: cho; also: in other assays of this panel Not Active means under 50% inhibition at 10 µM
Chain of Substance-P receptor (P25103 whole entry): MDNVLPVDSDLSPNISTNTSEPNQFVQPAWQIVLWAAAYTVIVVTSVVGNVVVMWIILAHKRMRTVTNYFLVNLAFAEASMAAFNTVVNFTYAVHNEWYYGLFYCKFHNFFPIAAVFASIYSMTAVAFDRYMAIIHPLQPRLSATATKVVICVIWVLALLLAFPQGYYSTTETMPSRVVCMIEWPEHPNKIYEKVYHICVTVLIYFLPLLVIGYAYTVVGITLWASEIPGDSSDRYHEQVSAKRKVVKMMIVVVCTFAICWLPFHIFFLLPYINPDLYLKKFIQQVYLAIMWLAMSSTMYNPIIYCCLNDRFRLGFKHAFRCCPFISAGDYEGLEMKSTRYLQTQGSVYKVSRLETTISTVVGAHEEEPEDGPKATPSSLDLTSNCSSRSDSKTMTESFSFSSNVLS

[5] = molecular target: T2, Alpha-1D adrenergic receptor (Homo sapiens, UniProt P25100); type: cell membranes, HEK293, Membrane; also: in other assays of this panel Not Active means under 50% inhibition at 10 µM
T2 sequence (P25100 whole entry): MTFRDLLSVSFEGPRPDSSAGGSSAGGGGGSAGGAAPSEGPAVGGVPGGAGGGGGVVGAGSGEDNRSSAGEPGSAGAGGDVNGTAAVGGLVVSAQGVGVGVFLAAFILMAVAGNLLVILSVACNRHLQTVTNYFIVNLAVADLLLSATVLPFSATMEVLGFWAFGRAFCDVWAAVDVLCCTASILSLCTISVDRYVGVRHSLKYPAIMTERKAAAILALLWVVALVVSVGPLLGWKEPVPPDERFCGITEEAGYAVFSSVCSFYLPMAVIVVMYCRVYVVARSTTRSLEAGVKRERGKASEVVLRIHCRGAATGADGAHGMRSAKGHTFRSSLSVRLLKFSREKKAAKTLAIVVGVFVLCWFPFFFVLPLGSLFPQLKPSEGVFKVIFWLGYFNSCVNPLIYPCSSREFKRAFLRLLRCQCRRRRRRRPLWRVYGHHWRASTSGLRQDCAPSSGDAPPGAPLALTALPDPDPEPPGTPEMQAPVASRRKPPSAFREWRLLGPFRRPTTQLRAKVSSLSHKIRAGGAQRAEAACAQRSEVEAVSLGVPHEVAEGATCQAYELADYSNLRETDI

Endothelin-1 receptor = molecular target: T3, Endothelin-1 receptor (Homo sapiens, UniProt P25101); type: cell membranes, Membrane; conditions: cho-k1; also: in other assays of this panel Not Active means under 50% inhibition at 10 µM
T3 sequence (P25101 whole entry): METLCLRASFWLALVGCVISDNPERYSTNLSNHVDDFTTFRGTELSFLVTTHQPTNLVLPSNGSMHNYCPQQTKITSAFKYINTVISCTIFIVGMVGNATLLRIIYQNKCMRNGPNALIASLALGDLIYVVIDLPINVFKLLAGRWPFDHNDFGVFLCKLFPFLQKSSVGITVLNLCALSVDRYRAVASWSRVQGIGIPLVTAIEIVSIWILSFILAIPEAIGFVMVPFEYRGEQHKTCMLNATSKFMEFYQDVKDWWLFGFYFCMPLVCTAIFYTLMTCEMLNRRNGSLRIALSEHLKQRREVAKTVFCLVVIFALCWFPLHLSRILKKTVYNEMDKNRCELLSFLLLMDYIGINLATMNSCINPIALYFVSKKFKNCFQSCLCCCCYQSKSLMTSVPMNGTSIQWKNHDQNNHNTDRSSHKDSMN

[6] = molecular target: T4, Cysteinyl leukotriene receptor 1 (Homo sapiens, UniProt Q9Y271); type: cell membranes, CHO-K1, Membrane; conditions: cho-k1; also: in other assays of this panel Not Active means under 50% inhibition at 10 µM
T4 sequence (Q9Y271 whole entry): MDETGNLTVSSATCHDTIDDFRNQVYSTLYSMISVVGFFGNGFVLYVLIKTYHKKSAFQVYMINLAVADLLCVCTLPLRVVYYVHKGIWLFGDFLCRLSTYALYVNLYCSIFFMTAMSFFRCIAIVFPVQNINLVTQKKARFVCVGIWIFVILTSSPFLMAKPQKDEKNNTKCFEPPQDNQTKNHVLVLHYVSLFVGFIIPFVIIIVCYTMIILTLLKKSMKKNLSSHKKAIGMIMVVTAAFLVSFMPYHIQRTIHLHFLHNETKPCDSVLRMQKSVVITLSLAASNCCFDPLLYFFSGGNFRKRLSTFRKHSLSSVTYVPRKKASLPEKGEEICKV

[7] = molecular target: 5-hydroxytryptamine receptor 6 (Homo sapiens, UniProt P50406); type: cell membranes, HeLa, Membrane; conditions: hela; also: in other assays of this panel Not Active means under 50% inhibition at 10 µM
Chain of 5-hydroxytryptamine receptor 6 (P50406 whole entry): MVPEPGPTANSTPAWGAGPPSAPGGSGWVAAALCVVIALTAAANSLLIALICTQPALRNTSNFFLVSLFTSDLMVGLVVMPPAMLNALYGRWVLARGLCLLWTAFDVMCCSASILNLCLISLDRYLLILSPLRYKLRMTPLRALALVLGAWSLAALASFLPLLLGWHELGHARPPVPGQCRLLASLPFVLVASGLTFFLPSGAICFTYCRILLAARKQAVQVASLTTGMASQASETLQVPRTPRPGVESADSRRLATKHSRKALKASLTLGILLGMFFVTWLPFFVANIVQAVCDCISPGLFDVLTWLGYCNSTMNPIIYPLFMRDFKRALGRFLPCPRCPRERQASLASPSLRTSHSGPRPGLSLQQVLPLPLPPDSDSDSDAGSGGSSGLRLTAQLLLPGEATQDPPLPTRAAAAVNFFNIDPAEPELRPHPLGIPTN

Cytochrome P450 1A2 = molecular target: T5, Cytochrome P450 1A2 (Homo sapiens, UniProt P05177); conditions: bti-tn-5b1-4; also: in other assays of this panel Not Active means under 50% inhibition at 10 µM
T5 sequence (P05177 whole entry): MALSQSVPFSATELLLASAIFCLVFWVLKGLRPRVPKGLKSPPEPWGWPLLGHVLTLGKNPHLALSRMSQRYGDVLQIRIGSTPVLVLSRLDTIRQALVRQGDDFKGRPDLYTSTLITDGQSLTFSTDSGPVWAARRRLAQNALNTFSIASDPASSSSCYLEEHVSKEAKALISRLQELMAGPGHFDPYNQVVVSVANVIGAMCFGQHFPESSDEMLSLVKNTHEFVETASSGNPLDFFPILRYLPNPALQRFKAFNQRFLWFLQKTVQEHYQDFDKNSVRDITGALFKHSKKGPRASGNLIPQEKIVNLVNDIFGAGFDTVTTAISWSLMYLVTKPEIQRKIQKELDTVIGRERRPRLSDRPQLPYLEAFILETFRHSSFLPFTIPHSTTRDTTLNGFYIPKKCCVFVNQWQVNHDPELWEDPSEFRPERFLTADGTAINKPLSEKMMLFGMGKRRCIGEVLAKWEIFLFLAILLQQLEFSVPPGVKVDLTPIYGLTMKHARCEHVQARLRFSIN

| Compound | IC50 (Adenosine receptor A1) | IC50 [1] | IC50 [2] | IC50 (Melanocortin receptor 3) | IC50 (Cytochrome P450 2E1) | Ki (Cytochrome P450 2E1) | IC50 [3] | IC50 [4] | IC50 (Substance-P receptor) | IC50 ([5]; hek293) | IC50 (Endothelin-1 receptor) | IC50 [6] | IC50 [7] | IC50 (Cytochrome P450 1A2) | Ki (Cytochrome P450 1A2) | further results |
| --- | --- | --- | --- | --- | --- | --- | --- | --- | --- | --- | --- | --- | --- | --- | --- | --- |
| CCc1cccc2c3c([nH]c12)C(CC)(CC(=O)O)OCC3 (stereo not drawn) [ETODOLAC] | Not Active | Not Active | Not Active | Not Active | Not Active | Not Active | Not Active | Not Active | Not Active | Not Active | Not Active | Not Active | Not Active | Not Active | Not Active | – |
| CN(C)[C@@H]1C(O)=C(C(N)=O)C(=O)[C@@]2(O)C(O)=C3C(=O)c4c(O)cccc4[C@@](C)(O)[C@H]3[C@H](O)[C@@H]12 [OXYTETRACYCLINE] | Not Active | Not Active | Not Active | Not Active | Not Active | Not Active | Not Active | Not Active | Not Active | Not Active | Not Active | Not Active | Not Active | Not Active | Not Active | – |
| CN(C)CCCC1(c2ccc(F)cc2)OCc2cc(C#N)ccc21 (stereo not drawn) [CITALOPRAM] | Not Active | Not Active | Not Active | Not Active | Not Active | Not Active | Not Active | Not Active | Not Active | – | Not Active | Not Active | Not Active | Not Active | Not Active | IC50 ([5]; read-out: IC50): 3290 nM; Ki ([5]; read-out: Ki): 1620 nM |
| CCCSc1ccc2nc(NC(=O)OC)[nH]c2c1 [ALBENDAZOLE] | Not Active | Not Active | Not Active | Not Active | Not Active | Not Active | Not Active | Not Active | Not Active | Not Active | Not Active | Not Active | Not Active | Not Active | Not Active | – |
| OXALIPLATIN | Not Active | Not Active | Not Active | Not Active | Not Active | Not Active | Not Active | Not Active | Not Active | Not Active | Not Active | Not Active | Not Active | Not Active | Not Active | Ki (Adenosine receptor A1): Not Active; Ki [1]: Not Active; Ki [2]: Not Active; Ki (Melanocortin receptor 3): Not Active; Ki [3]: Not Active; Ki [4]: Not Active; Ki (Substance-P receptor): Not Active; Ki ([5]; hek293): Not Active; Ki (Endothelin-1 receptor): Not Active; Ki [6]: Not Active; Ki [7]: Not Active |
| Oc1cccc2cccnc12 [OXYQUINOLINE] | Not Active | Not Active | Not Active | Not Active | Not Active | Not Active | Not Active | Not Active | Not Active | Not Active | Not Active | Not Active | Not Active | Not Active | Not Active | – |
| CCCc1cc(=O)[nH]c(=S)[nH]1 [PROPYLTHIOURACIL] | Not Active | Not Active | Not Active | Not Active | Not Active | Not Active | Not Active | Not Active | Not Active | Not Active | Not Active | Not Active | Not Active | Not Active | Not Active | – |
| CARBOPLATIN | Not Active | Not Active | Not Active | Not Active | Not Active | Not Active | Not Active | Not Active | Not Active | Not Active | Not Active | Not Active | Not Active | Not Active | Not Active | Ki (Adenosine receptor A1): Not Active; Ki [1]: Not Active; Ki [2]: Not Active; Ki (Melanocortin receptor 3): Not Active; Ki [3]: Not Active; Ki [4]: Not Active; Ki (Substance-P receptor): Not Active; Ki ([5]; hek293): Not Active; Ki (Endothelin-1 receptor): Not Active; Ki [6]: Not Active; Ki [7]: Not Active |
| Nc1nc2c(ncn2COC(CO)CO)c(=O)[nH]1 [GANCICLOVIR] | Not Active | Not Active | Not Active | Not Active | Not Active | Not Active | Not Active | Not Active | Not Active | Not Active | Not Active | Not Active | Not Active | Not Active | Not Active | – |
